# According to US4759917A, “Oxidative dissolution of gallium arsenide and separation of gallium from arsenic” (priority 1987, dated 1988):
# Assay: Viscosity of hydroxamic acids
# Type: physicochemical
# Conditions: neat, without a solvent
# Text: When a liquid hydroxamic acid compound is used, it can be used neat as the organic phase in the oxidation-dissolution reaction and the subsequent extraction-separation. However it will often be preferable to use an organic solvent as an extender, or to lower viscosity or lessen absorption or resulting losses of the hydroxamic acid, or to promote phase separation, and the organic phase often includes a liquid hydrocarbon solvent. Such solvent must be substantially water immiscible so as to be separable from the aqueous solutions containing the arsenic values. Suitable solvents include aliphatic and aromatic hydrocarbons such as kerosene, hexane, toluene, methylene chloride, chloroform, carbon tetrachloride, xylene, naphtha, cyclohexane, Chevron Ion Exchange solvent, Kermac 470-B. Solvesso 100 and the like. Kerosene and other low viscosity, high flash point petrolleum distillates are preferred. Generally, the hydroxamic compounds will be present in the organic phase in an amount of at least about 2% by weight. Preferably, the N-alkyl alkanohydroxamic compound will be present in the amount of 2 to 40%, more preferably about 10 to 35%, by weight based on the total organic phase. Viscosity and/or solubility serves to fix the upper limit of the content of said hydroxamic compound which will depend upon the structure of the compound employed. […]
substance,measurement,value
N-methyl isostearohydroxamic acid,viscosity,sufficiently low viscosity that they can be used neat
